Experiments:
[1] = mouse
[2] = system: DMS 273; test: Dose response of growth, tumor cell line; format: cell-based; conditions: Homo sapiens, DMS 273, small cell lung cancer
[3] = system: P388; test: Dose response of growth, tumor cell line; format: cell-based, murine; conditions: P388, miscellaneous
Protocol: (§1) Indeed, 70% of the cell lines were shown not only to experience precluded growth, but cell death, when exposed to less then 100 μM of the active ingredient.

[4] = system: P388/ADR; test: Dose response of growth, tumor cell line; format: cell-based, murine; conditions: miscellaneous
Protocol: as §1

[5] = system: U251; test: Dose response of growth, tumor cell line; format: cell-based; conditions: Homo sapiens, U-251, U251, CNS cancer
Protocol: as §1

[6] = system: NCI-H322M; test: Dose response of growth, tumor cell line; format: cell-based; conditions: Homo sapiens, non-small cell lung cancer
Protocol: as §1

[7] = system: OVCAR-4; test: Dose response of growth, tumor cell line; format: cell-based; conditions: Homo sapiens, OVCAR-4, ovarian cancer
Protocol: as §1

[8] = system: HOP-62; test: Dose response of growth, tumor cell line; format: cell-based; conditions: Homo sapiens, HOP-62, non-small cell lung cancer
Protocol: as §1

[9] = system: RPMT-8226; test: Dose response of growth, tumor cell line; format: cell-based; conditions: Homo sapiens, RPMT-8226, leukemia
Protocol: as §1

[10] = system: EKVX; test: Dose response of growth, tumor cell line; format: cell-based; conditions: Homo sapiens, non-small cell lung cancer
Protocol: as §1

[11] = system: KM20L2; test: Dose response of growth, tumor cell line; format: cell-based; conditions: Homo sapiens, KM-20L2, KM20L2, colon cancer
Protocol: as §1

[12] = system: SK-OV-3; test: Dose response of growth, tumor cell line; format: cell-based; conditions: Homo sapiens, SK-OV-3, ovarian cancer
Protocol: as §1

[13] = system: SK-MEL-5; test: Dose response of growth, tumor cell line; format: cell-based; conditions: Homo sapiens, SK-MEL-5, melanoma
Protocol: as §1

[14] = system: XF 498; test: Dose response of growth, tumor cell line; format: cell-based; conditions: Homo sapiens, XF498, XF 498, CNS cancer
Protocol: as §1

[15] = system: HL-60 (TB); test: Dose response of growth, tumor cell line; format: cell-based; conditions: Homo sapiens, leukemia
Protocol: as §1

[16] = system: UACC-62; test: Dose response of growth, tumor cell line; format: cell-based; conditions: Homo sapiens, UACC-62, melanoma
Protocol: as §1

[17] = system: NCI-H23; test: Dose response of growth, tumor cell line; format: cell-based; conditions: Homo sapiens, NCI-H23, non-small cell lung cancer
Protocol: as §1

[18] = system: OVCAR-5; test: Dose response of growth, tumor cell line; format: cell-based; conditions: Homo sapiens, OVCAR-5, ovarian cancer
Protocol: as §1

[19] = system: HOP-18; test: Dose response of growth, tumor cell line; format: cell-based; conditions: Homo sapiens, HOP-18, non-small cell lung cancer
Protocol: as §1

[20] = system: OVCAR-3; test: Dose response of growth, tumor cell line; format: cell-based; conditions: Homo sapiens, OVCAR-3, ovarian cancer
Protocol: as §1

[21] = system: L1210 mouse cells; test: Example 3: growth of L1210 mouse cells with bis(halomethyl)phenanthrolines plus copper, with or without BCS; format: cell-based; conditions: at highest concentration tested (3 μM); copper 10 μM, BCS 100 μM
Protocol: Bis(halomethyl)phenanthroline compounds were synthesized according to the method of Newkome et al., J. Org. Chem., 48, 5112-5114 (1983). Such compounds, namely, 2,9-bis(bromomethyl)phenanthroline and 2,9-bis(chloromethyl)phenanthroline, were added in the presence of copper, but with or without BCS (the copper chelator shown in Examples 1 and 2 to reduce inhibitory activity), to the culture media of L1210 mouse cells, using the same methods of Examples 1 and 2. The concentrations of copper and BCS used in these experiments were 10 μM and 100 μM, respectively. The growth of the cells as a percent of control were determined, and the results plotted in the graph of FIG. 3, wherein open squares (.quadrature.) represent the compound plus copper chelate and solid squares (.box-solid.) represent the compound together with both copper and BCS addition to the culture medium.

[22] = system: human tumor cell lines; test: Example 5: dose response of growth of human tumor cell lines, overall panel; format: cell-based
Protocol: as §1

[23] = read-out: 50% Growth (Relative to Control)
[24] = read-out: No Growth (Relative to Control)
[25] = Mus musculus, read-out: 50% Growth (Relative to Control)
[26] = Mus musculus, read-out: No Growth (Relative to Control)

ClCc1ccc2ccc3ccc(CCl)nc3c2n1 [2,9-bis(chloromethyl)-1,10-phenanthroline]
tolerated in vivo concentration relative to 100 μM in vitro [1]: at least 8.5 times
toxicity in an animal ([1]; in vivo, 250 mg/kg): not toxic
tolerability in mammals compared with the brominated derivative ([1]; in vivo, ip): better tolerated
IC50 [2, 23]: 2.84 µM
IC100 [2, 24]: > 100 µM
IC50 [3, 25]: 0.735 µM
IC100 [3, 26]: 3.01 µM
CC50 ([3]; read-out: 50% Loss (50% kill)): 25.1 µM
IC50 [4, 25]: 0.355 µM
IC100 [4, 26]: 3.82 µM
CC50 ([4]; read-out: 50% Loss (50% kill)): > 100 µM
IC50 [5, 23]: 2.06 µM
CC50 ([5]; read-out: 50% Loss (50% kill)): 8.11 µM
IC100 [5, 24]: 4.09 µM
IC50 [6, 23]: 2.84 µM
CC50 ([6]; read-out: 50% Loss (50% kill)): 29.2 µM
IC100 [6, 24]: 8.41 µM
IC50 [7, 23]: 3.15 µM
CC50 ([7]; read-out: 50% Loss (50% kill)): 34.9 µM
IC100 [7, 24]: 9.37 µM
IC50 [8, 23]: 2.29 µM
CC50 ([8]; read-out: 50% Loss (50% kill)): 19.2 µM
IC100 [8, 24]: 5.3 µM
IC50 [9, 23]: 1.25 µM
CC50 ([9]; read-out: 50% Loss (50% kill)): > 100 µM
IC100 [9, 24]: 36.6 µM
IC50 [10, 23]: 28.1 µM
CC50 ([10]; read-out: 50% Loss (50% kill)): > 100 µM
IC100 [10, 24]: > 100 µM
IC50 [11, 23]: 2.72 µM
CC50 ([11]; read-out: 50% Loss (50% kill)): 28.3 µM
IC100 [11, 24]: 7.21 µM
IC50 [12, 23]: 8.9 µM
CC50 ([12]; read-out: 50% Loss (50% kill)): > 10 µM
IC100 [12, 24]: > 10 µM
IC50 [13, 23]: 1.59 µM
CC50 ([13]; read-out: 50% Loss (50% kill)): 9.45 µM
IC100 [13, 24]: 3.88 µM
IC50 [14, 23]: 1.72 µM
CC50 ([14]; read-out: 50% Loss (50% kill)): > 100 µM
IC100 [14, 24]: 5.63 µM
IC50 [15, 23]: 1.8 µM
CC50 ([15]; read-out: 50% Loss (50% kill)): 23 µM
IC100 [15, 24]: 4.43 µM
IC50 [16, 23]: 1.18 µM
CC50 ([16]; read-out: 50% Loss (50% kill)): 5.07 µM
IC100 [16, 24]: 2.45 µM
IC50 [17, 23]: 1.87 µM
CC50 ([17]; read-out: 50% Loss (50% kill)): 7.24 µM
IC100 [17, 24]: 3.68 µM
IC50 [18, 23]: 1.87 µM
CC50 ([18]; read-out: 50% Loss (50% kill)): 6.63 µM
IC100 [18, 24]: 3.52 µM
IC50 [19, 23]: 3.02 µM
CC50 ([19]; read-out: 50% Loss (50% kill)): 31.2 µM
IC100 [19, 24]: 9.71 µM
IC50 [20, 23]: 1.75 µM
CC50 ([20]; read-out: 50% Loss (50% kill)): 18.4 µM
IC100 [20, 24]: 4.93 µM
difference between the copper-chelated and the unchelated derivative [21]: 10%
IC (total growth inhibition) ([22]; Homo sapiens, average, majority of cell lines, read-out: average concentration to preclude growth of the transformed cells in vitro, majority of cell lines): ~5.66 µM
cessation of growth of transformed cells ([22]; human tumor cell lines): nearly all transformed cells cease growth in the presence of micromolar concentrations
